Patent US20260224688A1, “HELPER LIPIDS FOR NUCLEIC ACID DELIVERY” (SANOFI PASTEUR INC., priority 2023, published 2026)
Where “and” joins values, the source holds several entries; their conditions need not be identical. Identical values can stand only once.

What was measured:
hEPO [1] = assay: IM EPO expression of LNPs containing phosphatidylcholine helper lipids; type: in vivo, female BALB/cJ mice; details: PC/CL-C formulations, helper lipid 13.5 mol %, DOPE = 1
Procedure: EPO expression studies were conducted with female BALB/cJ mice 6-8 weeks of age. Mice were dosed with […] EPO mRNA in 30 μL of LNPs by a single intramuscular (IM) injection into the gastrocnemius leg muscle. Blood samples were taken 6 and 24 hours post injection and hEPO levels were measured in the blood serum of the mice using an ELISA assay according to the manufacture's protocol. WO2022/099003 A1 also describes an in vivo assay for intramuscular administration (e.g. on page 46, paragraph [00206]).
Lipid nanoparticles were formulated containing the four lipid components shown below, complexed with a hEPO messenger RNA. • Cationic lipid CL-C, 40 mol % • Helper lipid, 13.5 mol % • Cholesterol, 44.8 mol % • DMG-PEG-2K (1,2-dimyristoyl-rac-glycero-3-methoxypolyethyleneglycol), 1.67 mol %
EPO expression studies were performed as described above in Example 3.

hEPO [2] = assay: IV EPO expression of LNPs (tail vein injection); type: in vivo, female BALB/cJ mice; details: cationic lipid CL-0137, helper lipid 30 mol %; 0.017 μg EPO mRNA tail vein; 6 hours; DOPE = 1
In short: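 Female BALB/cJ mice (6-8 weeks) received a single tail-vein injection of 0.017 μg hEPO mRNA in LNPs (cationic lipid CL-0137/helper lipid/cholesterol/DMG-PEG-2K, 40:30:28.5:1.5 mol %). Serum hEPO was measured by ELISA on blood taken 6 h post-dose.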

hEPO [3] = assay: IV delivery using phosphatidylcholine helper lipids (EPO expression); type: in vivo, female BALB/cJ mice; details: cationic lipid CL-0137, helper lipid 13.5 mol %; 0.017 μg EPO mRNA tail vein; 6 hours; DOPE = 1
Procedure: Lipid nanoparticles were formulated containing the four lipid components shown below, complexed with a hEPO messenger RNA. • Cationic lipid CL-0137, 40 mol % • Helper lipid, 13.5 mol % • Cholesterol, 44.8 mol % • DMG-PEG-2K (1,2-dimyristoyl-rac-glycero-3-methoxypolyethyleneglycol), 1.67 mol %
EPO expression studies were conducted with female BALB/cJ mice 6-8 weeks of age. Mice were dosed with 0.017 μg EPO mRNA LNPs in a volume of 5 ul by a single tail vein injection. Blood samples were taken 6 hours post injection and hEPO levels were measured in the blood serum of the mice using an ELISA assay according to the manufacture's protocol.

[4] = mRNA encapsulation efficiency of lipid nanoparticles; type: physicochemical; details: LNP with cationic lipid CL-A
In short: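 Encapsulation by RiboGreen assay run with and without 0.1% Triton-X 100. LNPs made by ethanolic lipid mixing with acidic aqueous mRNA, molar ratio 40:1.5:30:28.5 (cationic lipid:DMG-PEG2000:cholesterol:helper lipid), ultrafiltered/diafiltered, stored at −80° C. Size/PdI by dynamic light scattering after dilution in 10% trehalose to about 0.1 mg/ml mRNA.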

hEPO [5] = assay: IM EPO expression of LNPs containing new helper lipids (hEPO in serum by ELISA); type: in vivo, female BALB/cJ mice; details: for 6-h EPO / 24-h EPO: single IM injection; for 24-h EPO: serum 24 hours post injection
In short: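 Female BALB/cJ mice aged 6-8 weeks received one intramuscular gastrocnemius injection of […] hEPO mRNA in 30 μL LNPs. The LNPs contained cationic lipid, phospholipid helper, cholesterol and DMG-PEG-2K at 40:30:28.5:1.5 mol %. Serum hEPO was measured by ELISA at 6 and 24 h.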

[6] = Dynamic light scattering of lipid nanoparticles (size, PDI); type: physicochemical; details: LNP with cationic lipid CL-A
In short: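 LNPs of cationic lipid:DMG-PEG2000:cholesterol:helper lipid at 40:1.5:30:28.5 molar ratio, made by Process A. Diluted in 10% trehalose (about 0.1 mg/ml mRNA) and sized by DLS at 173° backscatter with a 633-nm laser, giving size and PDI.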

Row | Compound | Normalized Mean EPO expression (hEPO [1]) | Normalized mean IV EPO expression using PC LNPs (hEPO [3]) | other results
1 | CCCCCCCCC(CCCCCCCC)OC(=O)CCCCCCC(=O)OC[C@H](COP(=O)([O-])OCC[N+](C)(C)C)OC(=O)CCCCCCC(=O)OC(CCCCCCCC)CCCCCCCC [Compound 41, (R)-2,3-Bis((8-(heptadecan-9-yloxy)-8-oxooctanoyl)oxy)propyl (2-(trimethylammonio)ethyl) phosphate] | 1.3 |  | Normalized Mean IV EPO expression (hEPO [2]): 1.7
2 | CCCCCCCCC(CCCCCCCC)OC(=O)CCCCCCC(=O)OC[C@@H](COP(=O)([O-])OCC[N+](C)(C)C)OC(=O)CCCCCCC(=O)OC(CCCCCCCC)CCCCCCCC [Compound 42, (S)-2,3-Bis((8-(heptadecan-9-yloxy)-8-oxooctanoyl)oxy)propyl (2-(trimethylammonio)ethyl) phosphate] | 1.1 | 1.16 | 
3 | CCCCCCCCC(CCCCCCCC)OC(=O)CCCCCCCCC(=O)O[C@@H](COC(=O)CCCCCCC(=O)OC(CCCCCCCC)CCCCCCCC)COP(=O)(O)OCC[N+](C)(C)C [Compound 44, (S)-2-((10-(Heptadecan-9-yloxy)-10-oxodecanoyl)oxy)-3-((8-(heptadecan-9-yloxy)-8-oxooctanoyl)oxy)propyl (2-(trimethylammonio)ethyl) phosphate] | 1 | 1.32 | 
4 | CCCCCCCCC(CCCCCCCC)OC(=O)CCCCCCCC(=O)O[C@@H](COC(=O)CCCCCCC(=O)OC(CCCCCCCC)CCCCCCCC)COP(=O)(O)OCC[N+](C)(C)C [Compound 46, (S)-3-((8-(Heptadecan-9-yloxy)-8-oxooctanoyl)oxy)-2-((9-(heptadecan-9-yloxy)-9-oxononanoyl)oxy)propyl (2-(trimethylammonio)ethyl) phosphate] | 1.1 | 1.34 | 
5 | CCCCCCCCC(CCCCCCCC)OC(=O)CCCCCCC(=O)O[C@@H](COC(=O)CCCCC(=O)OC(CCCCCCCC)CCCCCCCC)COP(=O)(O)OCC[N+](C)(C)C [Compound 48, (S)-3-((6-(Heptadecan-9-yloxy)-6-oxohexanoyl)oxy)-2-((8-(heptadecan-9-yloxy)-8-oxooctanoyl)oxy)propyl (2-(trimethylammonio)ethyl) phosphate] | 1.1 | 1.08 | 
6 | CCCCCCCCC(CCCCCCCC)OC(=O)CCCCCCCC(=O)OC[C@@H](COP(=O)(O)OCC[N+](C)(C)C)OC(=O)CCCCCCC(=O)OC(CCCCCCCC)CCCCCCCC [Compound 50, (S)-2-((8-(Heptadecan-9-yloxy)-8-oxooctanoyl)oxy)-3-((9-(heptadecan-9-yloxy)-9-oxononanoyl)oxy)propyl (2-(trimethylammonio)ethyl) phosphate] | 1 | 1.6 | 
7 | CCCCCCCCC(CCCCCCCC)OC(=O)CCCCCCCCC(=O)OC[C@@H](COP(=O)(O)OCC[N+](C)(C)C)OC(=O)CCCCCCC(=O)OC(CCCCCCCC)CCCCCCCC [Compound 52, (S)-3-((10-(Heptadecan-9-yloxy)-10-oxodecanoyl)oxy)-2-((8-(heptadecan-9-yloxy)-8-oxooctanoyl)oxy)propyl (2-(trimethylammonio)ethyl) phosphate] | 1 | 1.53 | 
8 | CCCCCCCCC(CCCCCCCC)C(=O)OCCCCCC(=O)OC[C@@H](COP(=O)(O)OCC[N+](C)(C)C)OC(=O)CCCCCOC(=O)C(CCCCCCCC)CCCCCCCC [Compound 54, (S)-2,3-Bis((6-((2-octyldecanoyl)oxy)hexanoyl)oxy)propyl (2-(trimethylammonio)ethyl) phosphate] | 0.5 | 0.97 | 
9 | CCCCCCCCCCCCCCCC(=O)OC[C@@H](COP(=O)(O)OCC[N+](C)(C)C)OC(=O)CCCCCCC(=O)OC(CCCCCCCC)CCCCCCCC [Compound 56, (S)-2-((8-(Heptadecan-9-yloxy)-8-oxooctanoyl)oxy)-3-(palmitoyloxy)propyl (2-(trimethylammonio)ethyl) phosphate] | 1 | 1.52 | 
10 | CCCCCCCCCCCCCCCC(=O)OC[C@H](COP(=O)(O)OCC[N+](C)(C)C)OC(=O)CCCCCCC(=O)OC(CCCCCCCC)CCCCCCCC [Compound 57, (R)-2-((8-(Heptadecan-9-yloxy)-8-oxooctanoyl)oxy)-3-(palmitoyloxy)propyl (2-(trimethylammonio)ethyl) phosphate] | 0.9 |  | 
11 | CCCCCCCC/C=C\CCCCCCCC(=O)OC[C@H](COP(=O)(O)OCCN)OC(=O)CCCCCCC/C=C\CCCCCCCC [DOPE, dioleoylphosphatidylethanolamine, reference compound] | 1 | 1 | Encapsulation efficiency (EE) [4]: 91%; 6-h EPO (hEPO [5]; CL-A LNP, 0.1 μg EPO mRNA in 30 μL, serum 6 hours post injection): 26.23 ng/mL; 24-h EPO (hEPO [5]; CL-A LNP): 19.128 ng/mL; 6-h EPO (hEPO [5]; CL-B LNP, serum 6 hours post injection): 19.62 ng/mL; 24-h EPO (hEPO [5]; CL-B LNP): 15.03 ng/mL; 6-h EPO (hEPO [5]; CL-C LNP): 16.38 ng/mL; 6-h EPO (hEPO [5]; CL-C LNP, (6-h)): 20.96 ng/mL; Normalized Mean EPO expression (hEPO [5]; helper lipid CL-C formulations, IM, DOPE = 1): 1; Polydispersity Index (PDI) [6]: 0.06 and 0.100; Size ([6]; hEPO mRNA, 40:30:28.5:1.5): 129 nm and 119 nm; Normalized Mean IV EPO expression (hEPO [2]): 1
12 | CCCCCCCCCCCCCCCCCC(=O)OC[C@H](COP(=O)([O-])OCC[N+](C)(C)C)OC(=O)CCCCCCCCCCCCCCCCC [DSPC, distearoylphosphatidylcholine, reference compound] |  | 0.89 | 
